Experimental data published in article PMC11243320, “Tailoring Fibroblast-Activation Protein Targeting for Theranostics: A Comparative Preclinical Evaluation of the ^68Ga- and ^177Lu-Labeled Monomeric and Dimeric Fibroblast-Activation Protein Inhibitors DOTA.SA.FAPi and DOTAGA.(SA.FAPi)2” (Molecules, 2024).

Tested on: CAFs
Assay: Internalization studies in CAFs
Type: cell-based, human
Details: 37 °C
Protocol: For saturation studies, CAFs were incubated with increasing concentrations of the radiotracers (0.1–10 nM). For internalization studies, approximately 2.5 pmol of the radiotracers were added to CAFs followed by incubation for 15, 30, 60, 90, 120, 180 and 240 min for the ^68Ga-labeled or 30, 60, 120, 240 and 360 min for the ^177Lu-labeled radiotracers at 37 °C, 5% CO2. For the externalization studies, approximately 2.5 pmol of the ^177Lu-labeled radiotracers were added to CAFs followed by incubation for 2 h at 37 °C, 5% CO2. Afterward, the amount of the externalized activity from the CAFs was determined at 0, 10, 20, 30, 60, 120, 240, and 1440 min (Supplemental Data).
Saturation Binding Studies […]
for 0.5, 1, 2, 4 and 6 h at 37 °C, 5% CO2 for the 177Lu-labeled tracers. […] The radioactivity of the culture medium, the receptor bound, and the internal-ized fractions were measured in a γ-counter. […]
The radioactivity of the culture medium, the receptor bound , the internalized and the externalized fractions were measured in a γ -counter. The externalized fraction of radioactivity was ex-pressed as the percentage of the total internalized amount. […]

| SMILES | Total cell associated uptake (% of total applied radioactivity) (4 h) | Total cell associated uptake (% of total applied radioactivity) (6 h) |
| --- | --- | --- |
| N#C[C@@H]1CC(F)(F)CN1C(=O)CNC(=O)c1ccnc2ccc(OCCCCNc3c(NCCNC(=O)CN4CCN(CC(=O)[O-])CCN(CC(=O)[O-])CCN(CC(=O)[O-])CC4)c(=O)c3=O)cc12.[68Ga+3] [[^68Ga]Ga-DOTA.SA.FAPi] | 21.9 ± 1.2% | – |
| N#C[C@@H]1CC(F)(F)CN1C(=O)CNC(=O)c1ccnc2ccc(OCCCCNc3c(NCCNC(=O)CN4CCN(CC(=O)[O-])CCN(CC(=O)[O-])CCN(CC(=O)[O-])CC4)c(=O)c3=O)cc12.[177Lu+3] [[^177Lu]Lu-DOTA.SA.FAPi] | – | 21.1 ± 1.1% |
